From patent US20230399361A1, “MACROCYCLIC PEPTIDES” (UNIVERSITY OF NOTRE DAME DU LAC, priority 2022, published 2023) come the findings set out here.

*1 amine or outer side, *2 acyl side, *3 side chain or, on linkers, in order; H or OH if unused. Where a SMILES comes first, the peptide text is derived from it. Primed or numbered codes have the meaning given here. [ ]: non-standard residue; d: D form. The star is where a group is joined. aIle′ = Ile with backbone amide N-amino (hydrazide NNH2), CC[C@H](C)[C@@H](C(=O)[*:2])N(N)[*:1]; aVal = Val with backbone amide N-amino (hydrazide NNH2), CC(C)[C@@H](C(=O)[*:2])N(N)[*:1]; X2 = NN([C@@H](Cc1ccc(O)cc1)C(=O)[*:2])[*:1]; X1 = CC[C@H](C)[C@@H](C(=O)[*:2])N(N)[*:1]; N(NH2)LysNH2 = NCCCC[C@@H](C(N)=O)N(N)*; X3 = CC(C)[C@@H](C(=O)[*:2])N(N)[*:1] Bounds are passed on as bounds.

Data set [1] concerns HEK293 cells stably expressing tau-RD (LM)-YFP.
Experimental: MTT cell viability assays were carried out on both HEK293 cells stably expressing tau-RD (LM)-YFP and SH-SY5Y cells. Cells were cultured in the DMEM/F12 complete medium containing 10% FBS, 1% penicillin/streptomycin, and 1% Glutamax in a 75 cm^2 cell culture flask under 5% CO2 at 37° C. Cell viability was determined using the MTT reduction assay. Briefly, 15,000 cells/well were plated in a 96-well tissue culture plate and were allowed to incubate overnight in a CO2 incubator. The medium was aspirated and the NAP inhibitor prepared in complete medium was added at a given final concentration. The plate was then allowed to incubate for additional 48 h in a CO2 incubator, and the medium was aspirated again and replaced with 0.5 mg/mL MTT prepared in complete medium and incubated for additional 3 h. The medium was then replaced with DMSO to dissolve formazan crystals, and the absorbance was measured at 570 nm using a Synergy H1 microplate reader. Each data set was collected from technical replicates on at least 2 different days.
A further data set addresses T1, tauP301L (Homo sapiens, UniProt P10636, P618L).
T1 construct: we expressed and purified full-length tau featuring a P301L mutation; His6 (N); made in house; host or cells: E. coli BL21 (DE3)
The data set is described as follows: ThT fluorescence aggregation assay of recombinant tauP301L. In kind it is biochemical. The note with it: 20 μM NAP (2-fold molar excess), 10 μM tauP301L, heparin, 48 h. An excerpt: (§1) NAP Tau Mimics Inhibit Tau Fibrilization In Vitro. We chose thioflavin T (ThT), an amyloid specific fluorescent dye that binds to β-sheet assemblies, to first evaluate the effect of NAPs on recombinant tau aggregation. For these studies, we expressed and purified full-length tau featuring a P301L mutation frequently observed in patients with frontotemporal dementia and Parkinsonism linked to chromosome 17 (FTDP-17). This missense mutation leads to local structure destabilization around the amyloid-forming region resulting in faster aggregation. Recombinant tauP301L aggregated in the presence of equimolar heparin sulfate (t1/2=6.5±0.4 h) starting with a very short 0.5 h lag phase, followed by a 24 h exponential growth phase. […] Compounds 2 and 4 are mono- and diaminated hexapeptides derived from the R2 PHF6* aggregation-prone sequence, whereas compounds 5, 6, 12, and 13 are all derived from the R3 PHF6 sequence. Several other NAPs had no effect on endpoint ThT fluorescence or lacked consistent inhibition across repeated experiments. […] NaOAc buffer, as evidenced by intense ThT fluorescence after 48 h (FIG. 1B).
Inhibition of full-length tau aggregation by mxyl-NAPs in a ThT assay. […] TauP301L ([…]) aggregated upon incubation with heparin over the course of 2 days, leading to high ThT fluorescence. […] We also synthesized linear and scrambled controls corresponding to each of the NAP inhibitors.
ThT Fluorescence Aggregation Assay. Recombinant tauP301L (10 μM final concentration) and NAP inhibitors (20 μM final concentration) were mixed in an aggregation buffer (100 mM sodium acetate, 10 μM ThT, 10 μM heparin, 2 mM DTT, and 0.5% DMSO, pH: 7.4) in a 96-well clear bottom black plate with a final reaction volume of 200 μL. The plate was then sealed with a clear sealing film and allowed to incubate at 37° C. with continuous shaking in a Biotek Synergy H1 microplate reader. An automated method was used to carry out ThT fluorescence measurements at an excitation wavelength of 444 nm and an emission wavelength of 485 nm at an interval of every 5 min for 48 h. Experiments were carried out in technical replicates on at least 2 different days. Every experiment included control wells that lacked tauP301L, heparin, or NAPs. The average signal from control wells lacking tau was used to subtract the background fluorescence, and the average of the first and last 10 data points of tau+heparin (no inhibitor) wells, after blank subtraction, was used to normalize the data. All data plots were generated with SigmaPlot.

The conditions of data set [2]: 24 h, 500 μM.
Experimental: (§2) Human Serum Stability Assay. The stability of NAPs in 25% human serum (MilliporeSigma) was assessed by HPLC. The reaction was started by adding NAPs at a final concentration of 500 μM in pre-warmed serum. The mixture was incubated at 37° C. for 24 h. A 100 μL aliquot of the reaction mixture was taken out at 0, 1, 4, and 24 h and was mixed with an equal volume of 20% trichloroacetic acid and incubated at 4° C. for 15 min to precipitate serum proteins. After centrifugation at 12,000 rpm for 10 min, the supernatant was collected and mixed with an internal standard (1 mg/mL Cbz-Tyr-OH dissolved in MeCN) and stored at −20° C. Samples were then analyzed by LC-MS, and the percentage of peptide remaining was calculated by integrating peaks.
The next data set has as its target T2, Aβ42 (Homo sapiens, UniProt P05067).
T2 construct: Incubation of synthetic, full-length Aβ42 (40 μM)
The data set is described as follows: ThT fluorescence assay with Aβ42. It counts as biochemical. From the text:
A peptidomimetic approach to tau inhibition offers prospects for achieving selectivity over other amyloids rich in f structure. As a preliminary test, we selected our best-performing aggregation-inhibitory tau mimic, 12, and determined its effect on Aβ42 aggregation in vitro (FIG. 6). […] We similarly observed no effect on aggregation kinetics at any of the concentrations tested.

The next data set can be described thus: in vitro. The note with it: human, serum, intact peptide in 25% human serum.
The nature of data set [3]: Self-aggregation of peptides alone by ThT fluorescence. It counts as physicochemical. The following applies: incubated alone in aq. NaOAc buffer, 48 h.
Excerpt: as §1
Design and synthesis of aggregation-resistant backbone-aminated derivatives of mxyl-AD. The data above support the hypothesis that mxyl-AD mimetic macrocycle can engage in native-like hydrophobic cross-b interactions as well as edge-to-edge H-bonds along the fibril axis. We next sought to employ mxyl-AD as a template for the design of tau seeding inhibitors that could potentially cap fibril growth and block propagation. This required us to incorporate a chemical modification onto mxyl-AD that would preclude its ability to self-assemble without disrupting its capacity to adopt the conformation required to bind tau. We therefore designed two backbone N-amino peptide (NAP) derivatives of our tau mimic, mxyl-NAP1 and mxyl-NAP2 (Scheme 1). Each of these analogues features a backbone amide substitution that precludes canonical b-sheet H-bonding along one edge of the macrocycle, while leaving the other edge intact to engage the tau protein. […] Both mxyl-NAP1 and mxyl-NAP2, which feature a single backbone N-amino group within the amyloidogenic PHF6 module, were prepared on solid support starting from Fmoc-protected N-amino dipeptides.

T1 sequence (P10636 1-383 isoform P10636-6 P243L): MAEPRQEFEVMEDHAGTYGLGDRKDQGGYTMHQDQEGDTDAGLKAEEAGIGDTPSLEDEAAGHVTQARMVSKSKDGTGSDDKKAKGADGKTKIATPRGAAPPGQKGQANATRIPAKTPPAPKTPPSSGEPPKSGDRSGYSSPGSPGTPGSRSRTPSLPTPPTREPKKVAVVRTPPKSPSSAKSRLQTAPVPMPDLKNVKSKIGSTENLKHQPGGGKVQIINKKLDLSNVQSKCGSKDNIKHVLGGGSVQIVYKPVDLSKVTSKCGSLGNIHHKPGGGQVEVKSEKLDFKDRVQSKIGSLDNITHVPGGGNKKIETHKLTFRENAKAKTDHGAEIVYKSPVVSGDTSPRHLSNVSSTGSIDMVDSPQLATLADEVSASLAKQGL
T2 sequence (P05067 672-713 limits assumed): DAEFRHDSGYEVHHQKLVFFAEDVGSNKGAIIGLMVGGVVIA
Experimental for in vitro: as §2

Regarding `CC[C@H](C)[C@@H](C(=O)N[C@H](C(=O)N(N)[C@@H](Cc1ccc(O)cc1)C(=O)N[C@@H](CCCCN)C(N)=O)C(C)C)N(N)C(=O)[C@H](CCC(N)=O)NC(=O)[C@@H](NC(C)=O)C(C)C` [Compound 12, Ac-Val-Gln-aIle-Val-aTyr-Lys-NH2] (Ac-VQ[X1]V[X2]K-NH2), the “toxicity to HEK293 biosensor cells in seeding experiments” value in data set [1] is “did not result in detectable toxicity”. Also, the “endpoint ThT fluorescence of tauP301L” value on tauP301L is on record as “significantly reduce”. Moreover, in data set [2], the “intact peptide in 25% human serum” value is more than 80%. Besides, on Aβ42 (40 μM Aβ42, up to 4-fold molar excess (160 μM)), the “effect on Aβ42 aggregation (ThT)” value is recorded as “no inhibitory effect”. Further, at Aβ42 (any of the concentrations tested), the “effect on Aβ42 aggregation kinetics” value is recorded as “no effect”. For the same molecule, at Aβ42 (in vitro), the “selectivity for tau over Aβ42” value was “in vitro selectivity for tau over Aβ42”. Besides, in the data set “in vitro”, the share remaining (as a rule, what is left of the initial amount, in per cent) at 24 h, 500 μM is more than 83%. Moreover, the “self-aggregation, ThT fluorescence of peptide alone” value (“self-aggregation, ThT fluorescence” for short) in data set [3] is listed as “no such fluorescence”.
In the case of “Ac-aVal-Gln-aIle-Ile-Asn-Lys-NH2 (Ac-[aVal]Q[aIle′]INK-NH2; SMILES CC[C@H](C)[C@H](NC(=O)[C@H]([C@@H](C)CC)N(N)C(=O)[C@H](CCC(N)=O)NC(=O)[C@H](C(C)C)N(N)C(C)=O)C(=O)N[C@@H](CC(N)=O)C(=O)N[C@@H](CCCCN)C(N)=O) [Compound 4]”, in the data set with tauP301L, the “endpoint ThT fluorescence of tauP301L” value is “significantly reduce”. Moreover, the “self-aggregation, ThT fluorescence” value in data set [3] is “no such fluorescence”.
As for `CC[C@H](C)[C@H](NC(=O)[C@H](CCC(N)=O)NC(=O)[C@@H](NC(C)=O)C(C)C)C(=O)N(N)[C@H](C(=O)N[C@@H](Cc1ccc(O)cc1)C(=O)N(N)[C@@H](CCCCN)C(N)=O)C(C)C` [Compound 13, Ac-Val-Gln-Ile-aVal-Tyr-aLys-NH2] (Ac-VQI[X3]Y-{N(NH2)LysNH2}), the “toxicity to HEK293 biosensor cells in seeding experiments” value in data set [1] was “did not result in detectable toxicity”. In addition, the “endpoint ThT fluorescence of tauP301L” value on tauP301L is listed as “significantly reduce”. Moreover, the “intact peptide in 25% human serum” value in data set [2] was more than 80%. The same molecule returned a share remaining at 24 h, 500 μM in “in vitro” of more than 83%. Further, the “self-aggregation, ThT fluorescence” value in data set [3] is “no such fluorescence”.
